Reference: US9978954B2, “Benzobis (thiadiazole) derivative, ink comprising same, and organic electronic device comprising same” (UBE INDUSTRIES, LTD., priority 2013, dated 2018)

Assay: Evaluation of solubility in organic solvents (visual observation of complete dissolution)
Format: physicochemical
Protocol: [Evaluation of Solubility]
The evaluation of the solubility of the synthesized compound was conducted by the following method.
About 2-3 mg of the compound was precisely weighed, and each solvent was added to the compound such that a predetermined concentration of the solute (0.5 wt %, 0.3 wt %, 0.2 wt %, 0.1 wt %, 0.05 wt %, or 0.03 wt %) was reached. The resultant mixture was stirred for 30 minutes at a predetermined temperature, and then it was evaluated by visual appearance observation whether or not the solute (synthesized compound) was completely dissolved in the solvent, which was the result of the evaluation of the solubility. As the solvent, chloroform (boiling point 61° C.), toluene (boiling point 111° C.), xylene (boiling point 144° C.), mesitylene (boiling point 165° C.), chlorobenzene (boiling point 130° C.), para-chlorotoluene (boiling point 162° C.), and ortho-dichlorobenzene (boiling point 181° C.) were used.

Row | solubility (solute concentration completely dissolved) (chlorobenzene, 100° C.) | solubility (solute concentration completely dissolved) (mesitylene, 100° C.) | solubility (solute concentration completely dissolved) (ortho-dichlorobenzene, 100° C.) | solubility (solute concentration completely dissolved) (toluene, 100° C.) | solubility (solute concentration completely dissolved) (mesitylene, 130° C.) | SMILES | further results
1 | < 0.03 wt % | < 0.03 wt % | < 0.03 wt % | < 0.03 wt % | – | FC(F)(F)Oc1ccc(-c2ccc(-c3c4c(c(-c5ccc(-c6ccc(OC(F)(F)F)cc6)s5)c5nsnc35)N=S=N4)s2)cc1 [Compound (RC1), 4,8-bis[5-(4-(trifluoromethoxy)phenyl)thiophene-2-yl]benzo[1,2-c:4,5-c′]bis[1,2,5]thiadiazole, reference compound] | –
2 | < 0.03 wt % | < 0.03 wt % | < 0.03 wt % | < 0.03 wt % | < 0.3 wt % | FC(F)(F)c1ccc(-c2ccc(-c3c4c(c(-c5ccc(-c6ccc(C(F)(F)F)cc6)s5)c5nsnc35)N=S=N4)s2)cc1 [Compound (RC2), 4,8-bis[5-(4-(trifluoromethyl)phenyl)thiophene-2-yl]benzo[1,2-c:4,5-c′]bis[1,2,5]thiadiazole, reference compound] | –
3 | – | – | – | – | – | CCCCCCCCCCC(F)(F)c1ccc(-c2ccc(-c3c4c(c(-c5ccc(-c6ccc(C(F)(F)CCCCCCCCCC)cc6)s5)c5nsnc35)N=S=N4)s2)cc1 [Compound (RC3), 4,8-bis[5-(4-(1,1-difluoroundecyl)phenyl)thiophene-2-yl]benzo[1,2-c:4,5-c′]bis[1,2,5]thiadiazole, reference compound] | solubility (solute concentration completely dissolved) (chlorobenzene, 60° C.): < 0.03 wt %; solubility (solute concentration completely dissolved) (mesitylene, 60° C.): < 0.03 wt %; solubility (solute concentration completely dissolved) (toluene, 60° C.): < 0.03 wt %
4 | < 0.03 wt % | < 0.03 wt % | < 0.03 wt % | < 0.03 wt % | < 0.3 wt % | FC(F)(F)Sc1ccc(-c2ccc(-c3c4c(c(-c5ccc(-c6ccc(SC(F)(F)F)cc6)s5)c5nsnc35)N=S=N4)s2)cc1 [Compound (RC5), 4,8-bis[5-(4-((trifluoromethyl)thio)phenyl)thiophene-2-yl]benzo[1,2-c:4,5-c′]bis[1,2,5]thiadiazole, reference compound] | –
5 | – | – | – | – | – | FC(F)(F)Oc1ccccc1-c1ccc(-c2c3c(c(-c4ccc(-c5ccccc5OC(F)(F)F)s4)c4nsnc24)N=S=N3)s1 [Compound (RR1), 4,8-bis[5-(2-(trifluoromethoxy)phenyl)thiophene-2-yl]benzo[1,2-c:4,5-c′]bis[1,2,5]thiadiazole, reference compound] | solubility (solute concentration completely dissolved) (mesitylene, 80° C.): ≥ 0.1 wt %; solubility (solute concentration completely dissolved) (toluene, 80° C.): ≥ 0.1 wt %
6 | – | – | – | – | – | FC(F)(F)c1ccccc1-c1ccc(-c2c3c(c(-c4ccc(-c5ccccc5C(F)(F)F)s4)c4nsnc24)N=S=N3)s1 [Compound (RR2), 4,8-bis[5-(2-(trifluoromethyl)phenyl)thiophene-2-yl]benzo[1,2-c:4,5-c′]bis[1,2,5]thiadiazole, reference compound] | solubility (solute concentration completely dissolved) (chlorobenzene, 25° C.): ≥ 0.1 wt %; solubility (solute concentration completely dissolved) (mesitylene, 25° C.): ≥ 0.1 wt %; solubility (solute concentration completely dissolved) (ortho-dichlorobenzene, 25° C.): ≥ 0.1 wt %; solubility (solute concentration completely dissolved) (toluene, 25° C.): ≥ 0.1 wt %
